Key:
human FPRL2 = target: T1, human FPRL2 (Homo sapiens, UniProt P25089); assay: Intracellular calcium measurements (FLIPR), agonistic activity in HEK293-hFPRL2-Gα16 cells; assay type: cell-based; conditions: Fluo-4 calcium FLIPR, normalized to GLY14-Humanin 100 nM
T1 construct: expressed in transfected cells; host or cells: HEK293 (HEK293-hFPRL2-Gα16)
T1 sequence (P25089 1-353): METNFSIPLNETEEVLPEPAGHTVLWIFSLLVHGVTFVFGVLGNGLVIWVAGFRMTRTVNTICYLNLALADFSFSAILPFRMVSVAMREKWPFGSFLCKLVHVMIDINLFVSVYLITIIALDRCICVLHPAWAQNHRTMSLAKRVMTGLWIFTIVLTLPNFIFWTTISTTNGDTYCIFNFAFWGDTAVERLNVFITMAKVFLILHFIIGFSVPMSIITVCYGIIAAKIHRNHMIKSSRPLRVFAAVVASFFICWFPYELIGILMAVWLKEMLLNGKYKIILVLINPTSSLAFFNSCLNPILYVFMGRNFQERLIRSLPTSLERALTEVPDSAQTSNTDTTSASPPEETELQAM
Procedure, shortened: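 Peak values after baseline subtraction are expressed relative to 100 nM Gly14-Humanin; compounds diluted in assay buffer from 10 mM DMSO stocks.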

human ALX receptor = target: T2, human ALX receptor (Homo sapiens, UniProt P25090); assay: Intracellular calcium measurements (FLIPR), agonistic activity in HEK293-hALXR-Gα16 cells; assay type: cell-based; conditions: Fluo-4 calcium FLIPR, normalized to WKYMVm 10 nM
T2 construct: expressed in transfected cells; host or cells: HEK293 (HEK293-hALXR-Gα16)
T2 sequence (P25090 1-351): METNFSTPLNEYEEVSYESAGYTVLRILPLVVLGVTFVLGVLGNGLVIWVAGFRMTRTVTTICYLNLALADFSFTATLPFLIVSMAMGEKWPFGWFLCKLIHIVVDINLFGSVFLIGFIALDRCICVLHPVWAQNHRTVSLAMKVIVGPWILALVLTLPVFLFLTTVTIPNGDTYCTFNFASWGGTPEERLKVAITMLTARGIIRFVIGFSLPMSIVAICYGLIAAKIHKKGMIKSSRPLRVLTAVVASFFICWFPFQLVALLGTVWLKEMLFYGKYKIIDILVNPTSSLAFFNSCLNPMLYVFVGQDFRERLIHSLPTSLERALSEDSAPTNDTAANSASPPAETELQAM
Procedure, shortened: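 Agonist-induced calcium flux was recorded by FLIPR (488/540 nm) in HEK293-hALXR-Gα16 cells pre-loaded with Fluo-4 AM (1 μM, 60 min, 37°C). Peak signal above baseline, after subtracting buffer addition, was expressed relative to WKYMVm at 10 nM final.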

| Structure (SMILES) | EC50 (human FPRL2) | EC50 (human ALX receptor) |
| --- | --- | --- |
| O=C(NCCCCN1CCCC1)[C@H]1[C@H](C(=O)Nc2cccc3nonc23)[C@@H]2C=C[C@H]1C21CC1 (racemic) [Example 151, (5R*)—N^5-(Benzo[2,1,3]oxadiazol-4-yl)-(6R*)—N^6-(4-pyrrolidin-1-yl-butyl)-(4S*,7R*)-[4,7-ethenylene-spiro[2.4]heptane]-5,6-dicarboxamide] | 714 nM | 9120 nM |
| CC(C)(C)c1csc(NC(=O)[C@H]2[C@H](C(=O)NCCCCN3CCCC3)[C@H]3C=C[C@@H]2C32CC2)n1 (racemic) [Example 152, (5R*)—N^5-(4-tert-Butyl-thiazol-2-yl)-(6R*)—N^6-(4-pyrrolidin-1-yl-butyl)-(4S*,7R*)-[4,7-ethenylene-spiro[2.4]heptane]-5,6-dicarboxamide] | 150 nM | 9630 nM |
| O=C(NCCCCN1CCCC1)[C@H]1[C@H](C(=O)Nc2nc(-c3ccccc3)ns2)[C@@H]2C=C[C@H]1C21CC1 (racemic) [Example 153, (5R*)—N^5-(3-Phenyl-[1,2,4]thiadiazol-5-yl)-(6R*)—N^6-(4-pyrrolidin-1-yl-butyl)-(4S*,7R*)-[4,7-ethenylene-spiro[2.4]heptane]-5,6-dicarboxamide] | 91 nM | 9890 nM |
| O=C(NCCCCN1CCCC1)[C@H]1[C@H](C(=O)Nc2nc3ccc(Cl)cc3s2)[C@@H]2C=C[C@H]1C21CC1 (racemic) [Example 154, (5R*)—N^5-(6-Chloro-benzothiazol-2-yl)-(6R*)—N^6-(4-pyrrolidin-1-yl-butyl)-(4S*,7R*)-[4,7-ethenylene-spiro[2.4]heptane]-5,6-dicarboxamide] | 214 nM | 10000 nM |
| Cc1cc2ccccc2n1CCCNC(=O)[C@H]1[C@H](C(=O)NCCCCN2CCCC2)[C@H]2C=C[C@@H]1C21CC1 (racemic) [Example 155, (5R*)—N^5-(3-(2-Methyl-1H-indol-1-yl)-propyl)-(6R*)—N^6-(4-pyrrolidin-1-yl-butyl)-(4S*,7R*)-[4,7-ethenylene-spiro[2.4]heptane]-5,6-dicarboxamide] | 91 nM | > 25000 nM |
| Cn1c(CCNC(=O)[C@H]2[C@H](C(=O)NCCCCN3CCCC3)[C@H]3C=C[C@@H]2C32CC2)nc2ccccc21 (racemic) [Example 156, (5R*)—N^5-(2-(1-Methyl-1H-benzoimidazol-2-yl)-ethyl)-(6R*)—N^6-(4-pyrrolidin-1-yl-butyl)-(4S*,7R*)-[4,7-ethenylene-spiro[2.4]heptane]-5,6-dicarboxamide] | 623 nM | > 25000 nM |
| O=C(NCCCCN1CCCC1)[C@H]1[C@H](C(=O)NCCn2ccc3ccccc32)[C@@H]2C=C[C@H]1C21CC1 (racemic) [Example 157, (5R*)—N^5-(2-(1H-Indol-1-yl)-ethyl)-(6R*)—N^6-(4-pyrrolidin-1-yl-butyl)-(4S*,7R*)-[4,7-ethenylene-spiro[2.4]heptane]-5,6-dicarboxamide] | 136 nM | > 25000 nM |
| COc1ccccc1CCNC(=O)[C@H]1[C@H](C(=O)NCCCCN2CCCC2)[C@H]2C=C[C@@H]1C21CC1 (racemic) [Example 158, (5R*)—N^5-(2-(2-Methoxy-phenyl)-ethyl)-(6R*)—N^6-(4-pyrrolidin-1-yl-butyl)-(4S*,7R*)-[4,7-ethenylene-spiro[2.4]heptane]-5,6-dicarboxamide] | 204 nM | > 25000 nM |
| O=C(CCCN1CCCC1=O)NC[C@H]1[C@H](C(=O)Nc2ccc(Br)cc2)[C@@H]2C=C[C@H]1C21CC1 (racemic) [Example 161, (5R*)—N^5-(4-Bromo-phenyl)-(6R*)-6-[(4-(2-oxo-pyrrolidin-1-yl)-butyrylamino)-methyl]-(4S*,7R*)-[4,7-ethenylene-spiro[2.4]heptane]-5-carboxamide] | 7920 nM | 47 nM |
| O=C(Cc1ccccc1Cl)NC[C@H]1[C@H](C(=O)Nc2ccc(Br)cc2)[C@@H]2C=C[C@H]1C21CC1 (racemic) [Example 162, (5R*)—N^5-(4-Bromo-phenyl)-(6R*)-6-[(2-(2-chloro-phenyl)-acetylamino)-methyl]-(4S*,7R*)-[4,7-ethenylene-spiro[2.4]heptane]-5-carboxamide] | 1730 nM | 61 nM |
| COCCC(=O)NC[C@H]1[C@H](C(=O)Nc2ccc(Br)cc2)[C@@H]2C=C[C@H]1C21CC1 (racemic) [Example 163, (5R*)—N^5-(4-Bromo-phenyl)-(6R*)-6-[(3-methoxy-propionylamino)-methyl]-(4S*,7R*)-[4,7-ethenylene-spiro[2.4]heptane]-5-carboxamide] | 5680 nM | 72 nM |
| CN(C)C(=O)CCC(=O)NC[C@H]1[C@H](C(=O)Nc2ccc(Br)cc2)[C@@H]2C=C[C@H]1C21CC1 (racemic) [Example 164, (5R*)—N^5-(4-Bromo-phenyl)-(6R*)-6-[(3-(N,N-dimethyl-aminocarbonyl)-propionyl-amino)-methyl]-(4S*,7R*)-[4,7-ethenylene-spiro[2.4]heptane]-5-carboxamide] | 6820 nM | 80 nM |
| COC(=O)CCCC(=O)NC[C@H]1[C@H](C(=O)Nc2ccc(Br)cc2)[C@@H]2C=C[C@H]1C21CC1 (racemic) [Example 166, (5R*)—N^5-(4-Bromo-phenyl)-(6R*)-6-{[(4-methoxycarbonyl-butanoyl)-amino]-methyl}-(4S*,7R*)-[4,7-ethenylene-spiro[2.4]heptane]-5-carboxamide] | 4710 nM | 88 nM |
| CCCCC(=O)NC[C@H]1[C@H](C(=O)Nc2ccc(Br)cc2)[C@@H]2C=C[C@H]1C21CC1 (racemic) [Example 167, (5R*)—N^5-(4-Bromo-phenyl)-(6R*)-6-(pentanoylamino-methyl)-(4S*,7R*)-[4,7-ethenylene-spiro[2.4]heptane]-5-carboxamide] | 3690 nM | 103 nM |
| Cc1nc(CC(=O)NC[C@H]2[C@H](C(=O)Nc3ccc(Br)cc3)[C@@H]3C=C[C@H]2C32CC2)c(C)s1 (racemic) [Example 168, (5R*)—N^5-(4-Bromo-phenyl)-(6R*)-6-[(2-(2,5-dimethyl-thiazol-4-yl)-acetylamino)-methyl]-(4S*,7R*)-[4,7-ethenylene-spiro[2.4]heptane]-5-carboxamide] | 862 nM | 71 nM |
| O=C(NC[C@H]1[C@H](C(=O)Nc2ccc(Br)cc2)[C@@H]2C=C[C@H]1C21CC1)c1ccnn1-c1ccccc1 (racemic) [Example 169, (5R*)—N^5-(4-Bromo-phenyl)-(6R*)-6-{[(1-phenyl-1H-pyrazole-5-carbonyl)-amino]-methyl}-(4S*,7R*)-[4,7-ethenylene-spiro[2.4]heptane]-5-carboxamide] | 1790 nM | 112 nM |
| NC(=O)CCC(=O)NC[C@H]1[C@H](C(=O)Nc2ccc(Br)cc2)[C@@H]2C=C[C@H]1C21CC1 (racemic) [Example 170, (5R*)—N^5-(4-Bromo-phenyl)-(6R*)-6-{[(3-aminocarbonyl-propionyl)-amino]-methyl}-(4S*,7R*)-[4,7-ethenylene-spiro[2.4]heptane]-5-carboxamide] | > 25000 nM | 114 nM |

Reference: US8563714B2, “Bridged spiro [2.4] heptane derivatives as ALX receptor and/or FPRL2 agonists” (Actelion Pharmaceuticals Ltd., priority 2009, dated 2013)
